Source: US8124389B2, “Crystal structure of aldehyde dehydrogenase and methods of use thereof” (The Board of Trustees of the Leland Stanford Junior …, priority 2008, dated 2012)
Numbering of substitutions follows the chain as printed.

Key:
Assay type in all cases: biochemical
wild-type ALDH2 [1] = biological target: T1, wild-type ALDH2 (Homo sapiens, UniProt P05091); assay: Dehydrogenase activity kinetic assay (25 mM BES, pH 7.5); conditions: for Vm/Vo / Vmax^(app) / EC50: 25 mM BES, pH 7.5, 0.5 mM NAD+; for EC50: read-out: KAct^(app); for Hill Slope / Vmax^(app) of daidzin inhibition curve / Vmin^(app) of daidzin inhibition curve: 100 μM propionaldehyde, 0.5 mM NAD+
T1 construct: made in house; host or cells: E. coli
T1 sequence (P05091 18-517): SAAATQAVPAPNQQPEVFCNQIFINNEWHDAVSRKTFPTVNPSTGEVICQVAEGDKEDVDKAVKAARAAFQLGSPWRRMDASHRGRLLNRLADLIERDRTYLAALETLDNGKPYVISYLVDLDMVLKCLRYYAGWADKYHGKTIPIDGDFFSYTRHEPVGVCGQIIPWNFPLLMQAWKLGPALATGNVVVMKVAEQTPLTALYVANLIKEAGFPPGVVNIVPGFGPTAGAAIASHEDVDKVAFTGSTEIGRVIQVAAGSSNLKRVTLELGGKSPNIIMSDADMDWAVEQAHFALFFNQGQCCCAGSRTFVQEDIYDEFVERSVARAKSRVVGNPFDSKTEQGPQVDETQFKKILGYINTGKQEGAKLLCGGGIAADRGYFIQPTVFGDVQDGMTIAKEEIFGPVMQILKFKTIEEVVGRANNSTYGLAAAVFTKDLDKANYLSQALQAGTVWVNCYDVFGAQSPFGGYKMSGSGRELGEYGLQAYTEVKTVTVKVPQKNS
Protocol: (§1) (A) Wild-type ALDH2 at 0 μM or 10 μM Alda-1 and (B) ALDH2*2 at 0 μM or 50 μM Alda-1. NAD^+concentrations were 0.5 mM for wild-type ALDH2 and 10 mM for ALDH2*2. Lines show fits to 4-parameter logistic curve.
(§2) ALDH2 and ALDH2*2 were produced and purified using an E. coli expression system as previously described (Larson et al., 2005, J. Biol. Chem. 280, 30550-30556 and Larson et al., 2007, J. Biol. Chem., 282, 12940-12950). All enzyme assays were performed in 25 mM BES, pH 7.5 and included a final concentration of 2% (v/v) DMSO as a cosolvent in all cases whether or not Alda-1 was present. Enzyme concentrations in the dehydrogenase assays were between 0.03 and 0.06 μM for ALDH2 and between 0.3 and 0.5 μM for ALDH2*2. Esterase assays utilized 0.97 mM para-nitrophenylacetate (pNPA) as a standard substrate concentration and enzyme concentrations for 0.06 μM for ALDH2 and 0.7 μM for ALDH2*2. All kinetic data were analyzed with SigmaPlot (v10.0, StatSys). All activation data for the dehydrogenase and esterase reactions were fit to the expression v=Vo+{(Vmax[S])/(KAct+[S])}, where Vo is the initial velocity for the reaction in the absence of activator and KAct is the concentration of activator required for half-maximal activation. All single-vary experiments for Alda-1 activation utilized a minimum of 10 different concentrations across a range from 0-200 μM. […] All data represent the average of a minimum of three independent experiments with at least two different enzyme preparations.

ALDH2*2 [2] = biological target: T2, ALDH2*2 (Homo sapiens, UniProt P05091, E504K); assay: as above; conditions: for Hill Slope / Vmax^(app) of daidzin inhibition curve / Vmin^(app) of daidzin inhibition curve: 100 μM propionaldehyde, 10 mM NAD+
T2 construct: made in house; host or cells: E. coli
T2 sequence (P05091 18-517 E504K): T1 sequence (P05091 18-517) with E487K
Protocol: as §1, §2

ALDH2*2 [3] = biological target: T2, ALDH2*2; assay: as above
[4] = biological target: T3, heterotetrameric ALDH2 (wild type/mutant) (Homo sapiens, UniProt P05091, E504K); assay: Enzyme activation of recombinant ALDH2 proteins by Alda-1 (FIG. 2); conditions: Alda-1 at 100 μM; 20 μg recombinant protein
T3 construct: made in house
T3 sequence (P05091 18-517): T1 sequence (P05091 18-517)
T3 sequence (P05091 18-517 E504K): T1 sequence (P05091 18-517) with E487K
Protocol: (§3) FIG. 2 depicts enzyme activation of homotetrameric wild type ALDH2 (homo wild type), heterotetrameric ALDH2 (hetero wild type/mutant; comprising a mixture of wild-type and mutant monomers), and homotetrameric mutant ALDH2 by Alda-1(100 μM). Enzymatic activity of recombinant ALDH2 proteins (20 μg each) is presented in percentage using homotetrameric wild type enzyme as a 100% control (n=3, **p<0.01 vs. control).
(§4) Alda-1 is an ALDH2 agonist. […] Chen et al. (2008) Science 321:1493-1495; PMID: 18787169.

[5] = biological target: T4, homotetrameric mutant ALDH2*2 (Homo sapiens, UniProt P05091, E504K); assay: as above; conditions: Alda-1 at 100 μM; 20 μg recombinant protein
T4 construct: made in house
T4 sequence (P05091 18-517 E504K): T1 sequence (P05091 18-517) with E487K
Protocol: as §3, §4

[6] = biological target: T5, homotetrameric wild type ALDH2*1/*1 (Homo sapiens, UniProt P05091); assay: as above; conditions: Alda-1 at 100 μM; 20 μg recombinant protein
T5 construct: made in house
T5 sequence (P05091 18-517): T1 sequence (P05091 18-517)
Protocol: as §3, §4

wild-type ALDH2 [7] = biological target: T1, wild-type ALDH2; assay: Esterase activity assay (p-nitrophenylacetate hydrolysis); conditions: for Vmax / EC50 / Vo: 0.97 mM p-Nitrophenylacetate; for EC50: read-out: KAct^(app); for Vo: velocity in absence of activator
Protocol: as §2
(§5) The ability of Alda-1 to stimulate the hydrolysis of p-nitrophenylacetate both in the presence and absence of coenzyme was examined.

ALDH2*2 [8] = biological target: T2, ALDH2*2; assay: as above
Protocol: as §2, §5

[9] = fixed 50 μM Alda-1, NAD+ as varied activator, 0.97 mM p-Nitrophenylacetate

For `O=C(NCc1ccc2c(c1)OCO2)c1c(Cl)cccc1Cl` [Alda-1, N-(1,3-benzodioxol-5-ylmethyl)-2,6-dichlorobenzamide], the “effect on ALDH2 activity with phenylacetaldehyde or DACA” value (wild-type ALDH2 [1]) was “little effect”, the “effect on daidzin inhibition” value (wild-type ALDH2 [1]; 10 μM Alda-1) was “antagonized daidzin inhibition” and the “effect on dehydrogenase activity with aromatic aldehydes (benzaldehyde, phenylacetaldehyde, DACA)” value (wild-type ALDH2 [1]; 20 μM Alda-1, saturating concentrations of substrate, pH 7.5) was “minimal effects”. The Vm/Vo (wild-type ALDH2 [1]; 100 μM Acetaldehyde) was 1.8 +/− 0.1, the “Vmax^(app)” value (wild-type ALDH2 [1]; 100 μM Acetaldehyde) was 107 ± 12 min⁻¹ and the EC50 (wild-type ALDH2 [1]; 100 μM Acetaldehyde) was 0.98 µM. For the same compound, the Vm/Vo (wild-type ALDH2 [1]; 100 μM Butyraldehyde) was 1.3 +/− 0.1, the “Vmax^(app)” value (wild-type ALDH2 [1]; 100 μM Butyraldehyde) was 86.6 ± 3.1 min⁻¹ and the EC50 (wild-type ALDH2 [1]; 100 μM Butyraldehyde) was 1.8 µM. The Vm/Vo (wild-type ALDH2 [1]; 100 μM Propionaldehyde) was 1.7 +/− 0.1, the “Vmax^(app)” value (wild-type ALDH2 [1]; 100 μM Propionaldehyde) was 78.5 ± 9.6 min⁻¹ and the EC50 (wild-type ALDH2 [1]; 100 μM Propionaldehyde) was 5.1 µM. For the same compound, the “effect on ALDH2 activity with phenylacetaldehyde or DACA at high concentrations” value (wild-type ALDH2 [1]; Alda-1 >100 μM) was “weakly inhibitory”, the “effect on activity with benzaldehyde” value (wild-type ALDH2 [1]; up to maximum concentration used, 200 μM Alda-1) was “little effect” and the “effect on daidzin inhibition” value (ALDH2*2 [2]; 50 μM Alda-1) was “antagonized daidzin inhibition”. The EC50 (ALDH2*2 [3]; covariation NAD+ (0.5-10 mM) and Alda-1 (0 to 30 μM), non-essential activator fit, read-out: Kact) was 16 ± 3 µM, the “decrease of apparent Km for NAD+” value (ALDH2*2 [3]; covariation NAD+ and Alda-1) was 6.7 fold and the “increase of Vmax” value (ALDH2*2 [3]; covariation NAD+ and Alda-1) was 2 fold. The “β-factor (modifier on Vmax)” value (ALDH2*2 [3]; covariation NAD+ and Alda-1, non-essential activator fit) was 2.0±0.2, the “increase of enzymatic activity” value [4] was 2.2 fold and the “increase of enzymatic activity” value [5] was 11 fold. For the same compound, the “increase of enzymatic activity” value [6] was 2.1 fold, the Vmax (wild-type ALDH2 [7]; 0.5 mM NAD+) was 248 ± 22 min⁻¹ and the EC50 (wild-type ALDH2 [7]; 0.5 mM NAD+) was 2.6 µM. For the same compound, the Vo (wild-type ALDH2 [7]; 0.5 mM NAD+) was 96.3 ± 2.2 min⁻¹, the “Vmax (second line, paired with Ki^(app))” value (wild-type ALDH2 [7]; 0.5 mM NAD+, higher Alda-1 concentrations, antagonism with NAD+) was 242 ± 14 min⁻¹ and the Ki (wild-type ALDH2 [7]; 0.5 mM NAD+, higher Alda-1 concentrations, antagonism with NAD+, read-out: Ki^(app)) was 328 µM. For the same compound, the “increase of ester hydrolysis” value (wild-type ALDH2 [7]; combined Alda-1 and NAD+) was 10 fold, the Vmax (wild-type ALDH2 [7]; no NAD+) was 181 ± 6.8 min⁻¹ and the EC50 (wild-type ALDH2 [7]; no NAD+) was 3.4 µM. For the same compound, the Vo (wild-type ALDH2 [7]; no NAD+) was 24.9 ± 2.0 min⁻¹, the Vmax (ALDH2*2 [8]; 1.0 mM NAD+, 0.97 mM p-Nitrophenylacetate) was 14.7 ± 1.3 min⁻¹ and the EC50 (ALDH2*2 [8]; 1.0 mM NAD+, 0.97 mM p-Nitrophenylacetate, read-out: KAct^(app)) was 11.2 µM. The Vo (ALDH2*2 [8]; 1.0 mM NAD+, 0.97 mM p-Nitrophenylacetate, velocity in absence of activator) was 1.36 ± 0.28 min⁻¹, the “increase of ester hydrolysis” value (ALDH2*2 [8]; combined Alda-1 and NAD+) was “over 100 fold” and the Vmax (ALDH2*2 [8]; [9]) was 49.5 ± 4.3 min⁻¹. For the same compound, the Vo (ALDH2*2 [8]; [9]) was 0.64 ± 0.19 min⁻¹, the Vmax (ALDH2*2 [8]; no NAD+, 0.97 mM p-Nitrophenylacetate) was 2.3 ± 0.2 min⁻¹ and the EC50 (ALDH2*2 [8]; no NAD+, 0.97 mM p-Nitrophenylacetate, read-out: KAct^(app)) was 16.1 µM. For the same compound, the Vo (ALDH2*2 [8]; no NAD+, 0.97 mM p-Nitrophenylacetate, velocity in absence of activator) was 0.40 ± 0.03 min⁻¹ and the EC50 (ALDH2*2 [8]; with Alda-1, read-out: half-maximal activating concentration of NAD+ for the esterase reaction in presence of Alda-1 (lowered from 7.5 mM)) was 2800 µM.

With `O=c1c(-c2ccc(O)cc2)coc2cc(O[C@@H]3O[C@H](CO)[C@@H](O)[C@H](O)[C@H]3O)ccc12` [Daidzin, daidzin, reference compound] the “Hill Slope” value (wild-type ALDH2 [1]; 10 μM Alda-1) was 1.0 +/− 0.1, the “Vmax^(app) of daidzin inhibition curve” value (wild-type ALDH2 [1]; 10 μM Alda-1) was 74.9 ± 12.1 min⁻¹ and the “Vmin^(app) of daidzin inhibition curve” value (wild-type ALDH2 [1]; 10 μM Alda-1) was 2.5 ± 5.2 min⁻¹. The “Hill Slope” value (wild-type ALDH2 [1]; no Alda-1) was 0.9 +/− 0.3, the “Vmax^(app) of daidzin inhibition curve” value (wild-type ALDH2 [1]; no Alda-1) was 61.5 ± 6.1 min⁻¹ and the “Vmin^(app) of daidzin inhibition curve” value (wild-type ALDH2 [1]; no Alda-1) was 5.1 ± 4.7 min⁻¹. The “Hill Slope” value (ALDH2*2 [2]; 50 μM Alda-1) was 1.1 +/− 0.1, the “Vmax^(app) of daidzin inhibition curve” value (ALDH2*2 [2]; 50 μM Alda-1) was 23.0 ± 1.7 min⁻¹ and the “Vmin^(app) of daidzin inhibition curve” value (ALDH2*2 [2]; 50 μM Alda-1) was 0.2 ± 0.2 min⁻¹. For the same compound, the “Hill Slope” value (ALDH2*2 [2]; no Alda-1) was 1.1 +/− 0.1, the “Vmax^(app) of daidzin inhibition curve” value (ALDH2*2 [2]; no Alda-1) was 11.6 ± 1.3 min⁻¹ and the “Vmin^(app) of daidzin inhibition curve” value (ALDH2*2 [2]; no Alda-1) was 0.2 ± 0.6 min⁻¹.
